Source: patent publication US11684617B2, “Methods of diagnosing and treating ADHD in biomarker positive subjects” (The Children's Hospital of Philadelphia, priority 2017, dated 2023)
“And” between values parts separate entries of the source, which are not always exact repeats. Identical values can stand only once.

Tests used:
[1] = test system: group I and group II/III mGluRs; conditions: in vitro studies (Hirouchi 2000); cited from earlier work
[2] = prior human studies; cited from earlier work
[3] = test system: dementia-related cognitive impairment; conditions: cited from earlier work
[4] = test system: CNV-positive adolescents with moderately severe ADHD; test: SAGA Phase 2 study: ADHD-RS-5 total score change from baseline (LOCF); format: in vivo, human; parameters: Response (% reduction in ADHD-RS score at endpoint from baseline): concentration or dose not given beside the values; conditions: for Response (change from baseline in ADHD RS-5 total score): Table 19
Source text: Subjects received randomized treatment with either NFC-1 or placebo. Subjects had ADHD as defined by the Diagnostic and Statistical Manual of Mental Disorders, 5th edition (DSM-5) and Version 5 of the Attention Deficit Hyperactivity Disorder Rating Scale (ADHD RS-5) >28 at Baseline with or without conventional ADHD therapy.
The study was a multicenter, Phase 2, double-blind, randomized, placebo-controlled, parallel-group, dose-optimization study. The study enrolled adolescents 12-17 yrs (inclusive) with ADHD defined by DSM-5 criteria.
Subjects were CNV positive for a CNVs in at least one of the 273 Tier 1 or Tier 2 glutamatergic network genes of interest as listed in Table 1 or 2. These subjects positive for a CNV may also be termed “biomarker positive.”
(§1) The maximum dose was 400 mg BID or placebo.
Efficacy was assessed by the ADHD RS-5, CGI-I, CGI-S, the Adolescent Sleep Hygiene Scale (ASHS), and the Screen for Childhood Anxiety-related Emotional Disorders (SCARED).
The primary efficacy endpoint was the change from baseline in ADHD-RS-5 total score to end of study (last observation carried forward, LOCF) in Intent-to-Treat (ITT) population. The ITT population consisted of 101 patients randomized to NFC-1 or placebo.

animal models = conditions: cited from earlier work
[5] = test system: CNV-positive adolescents with moderately severe ADHD; test: SAGA Phase 2 study: tolerability/safety, treatment-emergent adverse events (safety population); conditions: safety population; NFC-1 n = 47
[6] = test system: CNV-positive adolescents with moderately severe ADHD; conditions: in vivo
[7] = test system: CNV-positive adolescents with moderately severe ADHD; test: SAGA Phase 2 study: treatment response (responder: >=30% ADHD-RS-5 reduction, CGI-I 1 or 2, composite); format: in vivo, human; conditions: for Responder? (Y/N): Table 19
Protocol: as §1
Treatment response was evaluated by measurement of responders and remission. The definition of a “responder” in this study was a response at endpoint of:
A) ≥30% reduction from Baseline in ADHD-RS-5 Total score; • B) CGI-I score of 1 (very much improved) or 2 (much improved); OR • C) Composite (both A and B)
Throughout, the “Response” columns represent the % reduction in ADHD-RS score at endpoint from baseline. […]

[8] = test system: CNV-positive adolescents with moderately severe ADHD; test: SAGA Phase 2 study: remission (ADHD-RS-5 <=18, CGI-I 1, composite); format: in vivo, human; conditions: endpoint; data not shown
Protocol: as §1
The definition of a “remission” in this study was a response at endpoint of:
A) ADHD-RS-5 Total score ≤18; • B) CGI-I score of 1. OR • C) Composite (both A and B)

pediatric ADHD subjects = pediatric ADHD subjects (Akhundian 2001); cited from earlier work
[9] = NFC-1-treated patient with CNV in ADRA2A
[10] = NFC-1-treated patient with CNV in CA8
[11] = NFC-1-treated patient with CNV in GRM5
[12] = NFC-1-treated patient with CNV in SNCA
[13] = study end (LOCF), 8-Gene Subset including CNTN4, NFC-1 BID n = 17, p <0.0001 vs placebo
[14] = study end (LOCF), CNTN4 Subset, NFC-1 BID n = 6, p <0.01 vs placebo
[15] = treatment response at endpoint (ITT, LOCF), NFC-1 BID n = 46, p <0.05 vs placebo

In the case of `O=C1CC[C@H](C(=O)N2CCCCC2)N1` [Fasoracetam, (+)-5-oxo-D-prolinepiperidinamide], the “stimulation of mGluRs” value [1] is given as “can stimulate both group I and group II/III mGluRs”, the bioavailable [2] is given as 79%-97% and the half-life [2] is given as 5 to 6.5 h.

For `O=C1CC[C@H](C(=O)N2CCCCC2)N1` [NFC-1, fasoracetam monohydrate], the safety and tolerability ([3]; Phase I-III trials, dementia indications) is listed as “generally safe and well tolerated”, the “effects on psychiatric symptoms” value ([3]; Phase III data, cerebral infarct patients and adult dementia patients with cerebrovascular diseases) is listed as “beneficial effects” and the efficacy in dementia ([3]; Phase III trials) is listed as “did not show sufficient efficacy”. The “difference between placebo and NFC-1 in ADHD-RS-5 total score change from Baseline to LOCF endpoint (primary endpoint)” value ([4]; ITT, overall population, optimized dose 100, 200 or 400 mg BID) was “not significant”, the “Response (% reduction in ADHD-RS score at endpoint from baseline)” value ([4]; Table 16, individual subjects with CNV in CNTN4 in the NFC-1-treated group, monohydrate) was −41.46% and −35.9% and −77.42% and −70% and −62.5% and −48.65% and the “Response (change from baseline in ADHD RS-5 total score)” value [4, 9] was −65%. For the same compound, the “Response (change from baseline in ADHD RS-5 total score)” value [4, 10] was −33.3333%, the “Response (change from baseline in ADHD RS-5 total score)” value [4, 11] was −37.5% and the “Response (change from baseline in ADHD RS-5 total score)” value [4, 12] was −76.9231%. For the same compound, the “Response (change from baseline in ADHD RS-5 total score)” value ([4]; NFC-1-treated patients with CNV in GRM8, monohydrate) was −48.2759% and −39.0244%, the “effects on learning and memory” value (animal models) was “Positive effects” and the “TEAE: Upper respiratory tract infection, % of subjects” value [5] was 4%. The “subjects in whom dosing with the highest dose (400 mg BID) was achieved” value ([6]; human, 4 weeks) was 91%, the “Any TEAE, % of subjects” value ([6]; human, 6 weeks) was 70% and the “Discontinuations due to TEAEs, % of subjects” value ([6]; human, 6 weeks) was 6%. The “TEAE: Accidental overdose, % of subjects” value ([6]; human, 6 weeks) was 11%, the “TEAE: Appetite increased, % of subjects” value ([6]; human, 6 weeks) was 6% and the “TEAE: Fatigue, % of subjects” value ([6]; human, 6 weeks) was 15%. For the same compound, the “TEAE: Headache, % of subjects” value ([6]; human, 6 weeks) was 9%, the “TEAE: Irritability, % of subjects” value ([6]; human, 6 weeks) was 2% and the “TEAE: Nasopharyngitis, % of subjects” value ([6]; human, 6 weeks) was 2%. For the same compound, the “TEAE: Nausea, % of subjects” value ([6]; human, 6 weeks) was 6%, the “TEAE: Weight increased, % of subjects” value ([6]; human, 6 weeks) was 15% and the overall tolerability [6] was “generally well-tolerated”. The “serious TEAEs” value [6] was “No serious TEAEs were reported”, the “severity of TEAEs” value [6] was “majority of TEAEs were mild-to-moderate” and the “Responder? (Y/N)” value [7, 9] was “Y (“Responder” indicates a 30% or greater reduction from baseline in ADHD RS-5 total score)”. The “Responder? (Y/N)” value [7, 10] was “Y (“Responder” indicates a 30% or greater reduction from baseline in ADHD RS-5 total score)”, the “Responder? (Y/N)” value [7, 11] was “Y (“Responder” indicates a 30% or greater reduction from baseline in ADHD RS-5 total score)” and the “Responder? (Y/N)” value [7, 12] was “Y (“Responder” indicates a 30% or greater reduction from baseline in ADHD RS-5 total score)”. For the same compound, the “Responder? (Y/N)” value ([7]; NFC-1-treated patients with CNV in CNTN4) was “Y (“Responder” indicates a 30% or greater reduction from baseline in ADHD RS-5 total score)”, the “Responder? (Y/N)” value ([7]; NFC-1-treated patients with CNV in GRM8) was “Y (“Responder” indicates a 30% or greater reduction from baseline in ADHD RS-5 total score)” and the “ADHD-RS-5 Total Score: ≥30% Reduction from Baseline, % of subjects” value [7, 13] was 88% (15). For the same compound, the “CGI-I Score 1 or 2, % of subjects” value [7, 13] was 76% (13), the “Composite response, % of subjects” value [7, 13] was 76% (13) and the “ADHD-RS-5 Total Score: ≥30% Reduction from Baseline, % of subjects” value ([7]; study end (LOCF), CNTN4 Subset, NFC-1 BID n = 6, p <0.005 vs placebo) was 100% (6). For the same compound, the “CGI-I Score 1 or 2, % of subjects” value [7, 14] was 83% (5), the “Composite response, % of subjects” value [7, 14] was 83% (5) and the “patients with 30% or greater reduction from baseline in ADHD RS-5 total score” value ([7]; subjects with a CNV in CNTN4 assigned to NFC-1) was 6/6. The “ADHD RS-5 Total Score: ≥30% Reduction from Baseline, % of subjects” value ([7]; treatment response at endpoint (ITT, LOCF), NFC-1 BID n = 46, p <0.01 vs placebo) was 70% (32), the “CGI-I Score 1 or 2, % of subjects” value [7, 15] was 57% (26) and the “Composite response, % of subjects” value [7, 15] was 57% (26). The “difference between treatment groups in remission” value [8] was “no significant difference”.

In the case of `NC(=O)CN1CCCC1=O` [piracetam], the “effect on ADHD symptoms compared to placebo control” value (pediatric ADHD subjects) is listed as “increase ADHD symptoms”.
